Source: PMC9616786, “Structure and function of the N-terminal extension of the formin INF2” (Cellular and Molecular Life Sciences, 2022)

Target: T1, purified CaM from bovine brain (Bos taurus, UniProt P62157)
T1 construct: Calmodulin from bovine brain; purchased Sigma-Aldrich Cat#208694; host or cells: bovine brain (tissue-purified)
Assay: Surface plasmon resonance, equilibrium binding of CaM to immobilized INF2 peptides
Conditions: SPR, in the presence of Ca2+ (1 mM CaCl2), 25 °C; Fig. 4B-D, Fig. S3F
Description: For use in surface plasmon resonance analysis, the peptide corresponding to amino acids 2-19 of human INF2 and similar peptides with replacements in the W11, L14 and L18 residues were synthesized in an automated multiple peptide synthesizer (Multipep, Intavis, Köln, Germany) in the Proteomics Facility of the Centro Nacional de Biotecnología (CSIC, Madrid). The INF2 2–36 peptide was obtained as a bespoke product with the same modifications from pepMic (Suzhou, China). These peptides contained two G residues at its N terminus to separate the INF2 sequence from an additional N-terminal end K residue, which was biotinylated in the ε-amino group. For use in NMR studies, the INF2 2–36 and 2-19 peptides were synthesized to order, without any modification, by CASLO ApS (Denmark). All the peptides were synthesized using the solid-phase synthetic procedures and standard Fmoc [N-(9-fluorenyl)methoxycarbonyl] chemistry, and then underwent reverse-phase HPLC purification.
All surface plasmon resonance experiments were carried out at 25 °C in a Biacore 3000 (Cytiva) robotic biosensor. Analyses were performed using HBSP (10 mM HEPES pH 7.4, 150 mM NaCl, 0.005% surfactant P20) supplemented with 1 mM CaCl2 as running buffer and for the dilution of analytes and ligands. Biotinylated peptides were individually immobilized on a streptavidin-coated sensor chip in flow cells 2, 3 and 4 at a flow rate of 10 µl/min (20–50 RU captured). The empty flow cell 1 was used as a control for non-specific binding and bulk effects. Purified CaM was injected at different concentrations ranging from 13.2 nM to 9.6 µM in duplicate, at a flowrate of 50 µl/min, with an association time of 60 s followed by dissociation for 60 s. After that, the sensor chip was regenerated by injection of 10 mM glycine–HCl, pH 1.7, with a contact time of 12 s. […] Sensorgrams with different concentrations of CaM were overlaid, aligned and analyzed with BIAevaluation Software 4.1, using the double-reference method. […]

Sequence | affinity / interaction with CaM relative to the intact 2-19 peptide (in words)
KGGSVKEGAQRKWAAAKEKAG [L14L18A 2-19 peptide, 2-19 INF2 peptide with the double L14L18A mutation] | reduced affinity
KGGSVKEGAQRKAAAAKEKAG [Peptide W11L14L18A, 2-19 INF2 peptide with the triple W11L14L18A mutation] | undetectable
KGGSVKEGAQRKAAALKEKLG [Peptide W11A, 2-19 INF2 peptide with the W11A mutation] | undetectable
